Source: article PMC10862539, “Chelation of Mitochondrial Iron as an Antiparasitic Strategy” (ACS Infectious Diseases, 2024)

Legend:
[1] = test system: T. brucei 427 bloodstream form; test: Reactive oxygen species determination (H2DCFDA, flow cytometry); format: cell-based, Trypanosoma brucei; details: twice the EC50 value (0.12 μM), 24 h
Procedure: T. brucei 427 bloodstream form’s cellular ROS production was assessed using H2DCFDA (Sigma-Aldrich). Cells were preincubated for 24 h with 0.12 μM mitoDFO, and approximately 1 × 10^6 cells were incubated with 10 μM H2DCFDA for 30 min and washed with PBS with 6 mM glucose, and 10 000 events were measured on a Guava EasyCyte 8HT flow cytometer (Luminex) using a 488 excitation laser and a 525/30 detector. Median fluorescence was plotted against untreated culture using Prism 8.0 (GraphPad Software), and statistical significance was determined using a two-tailed paired t-test. The experiment was performed in three biologically independent replicates.

[2] = test system: Human fibroblast BJ1; set-up: method as in C. Sandoval-Acuña et al.[25]; details: ref C. Sandoval-Acuña et al.[25], read-out: control EC50; cited from earlier work
[3] = test system: T. brucei 427 bloodstream form; test: Mitochondrial membrane potential (TMRE, flow cytometry); format: cell-based, Trypanosoma brucei; set-up: dose or concentration left out as unconfirmed; details: 0.12, 0.3, and mitoDFO for 24 h
Procedure: T. brucei 427 bloodstream form’s mitochondrial membrane potential was assessed using the fluorescent probe TMRE (Thermo Fisher Scientific). […] Approximately 1 × 10^6 cells were incubated with 60 nM TMRE for 30 min and washed with PBS with 6 mM glucose, and 10 000 events were measured on a Guava EasyCyte 8HT flow cytometer (Luminex) using a 488 excitation laser and a 583/26 detector. Median fluorescence was plotted against untreated culture using Prism 8.0 (GraphPad Software), and statistical significance was determined using RM one-way ANOVA with Geisser-Greenhouse correction. The experiment was performed in three biologically independent replicates.

[4] = test system: Cryptococcus neoformans; test: C. neoformans capsule size (India ink microscopy); format: cell-based; details: 20 μM mitoDFO for 24 h; 31 cells
Procedure: C. neoformans capsule thickness was measured using a previously published protocol.[33] Briefly, the yeast was seeded in 1 mL of RPMI in a 24 well plate with and without a final concentration of 20 μM mitoDFO for 24 h at 35 °C. The culture was harvested (1300 g, 5 min, RT) and resuspended in 50 μL of RPMI. An equal amount of India Ink (Thermo-Fisher) was added, and a total volume of 15 μL of resuspended cells was placed on a microscope slide, covered with cover glass, and imaged on an Eclipse TI-S (Nikon) inverted microscope using 100× magnification. A total of 31 cells were randomly selected, excluding morphologically anomalous and overlapping cells. Using NIS Elements BR (Nikon), the inner and outer diameters of each cell were measured, and cell size and capsule thickness were calculated. Graphs were plotted, and an unpaired t-test was performed using Prism 8.0 (GraphPad Software).

CC(=O)N(O)CCCCCNC(=O)CCC(=O)N(O)CCCCCNC(=O)CCC(=O)N(O)CCCCCN(CCCCCCCCCC[P+](c1ccccc1)(c1ccccc1)c1ccccc1)CCCCCCCCCC[P+](c1ccccc1)(c1ccccc1)c1ccccc1 [mitoDFO]
increase in the presence of ROS compared to the culture without treatment [1]: approximately 3.5 fold | EC50 [2]: 7.9 ± 3.9 µM | mitochondrial membrane potential [3]: rapidly reduced in a dose-dependent manner | capsule thickness [4]: increases significantly | overall cell size [4]: remains the same
